Results as given in article PMC9298630 (Journal of Food and Drug Analysis, 2018).
Like-named read-outs stand apart in the source and are kept apart here.

Experiments:
[1] = cited from earlier work
[2] = Stability of analytes in stored plasma samples; settings: −80 °C, rat plasma
[3] = for AUC0–t / AUC0–∞ / CL/F (apparent clearance) / Cmax / Tmax / Vd/F / t1/2: rats, mean ± SEM
[4] = S. Chinese remedy-treated rats; cited from earlier work
[5] = oral suspension (40 mg/ml), 7 days, participants; cited from earlier work
[6] = system: rat liver microsomal NFO activity (CYP3A); experiment: Inhibition of rat liver microsomal nifedipine oxidation; format: in vitro ADME; settings: 100 μM, 10-min NADPH-fortified pre-incubation
[7] = oral nifedipine 3 mg/kg 1 h after SY 0.95 g/kg
[8] = oral nifedipine 3 mg/kg 1 h after SY […]
[9] = oral nifedipine 3 mg/kg together with ketoconazole 30 mg/kg
[10] = oral nifedipine 3 mg/kg, control

COC(=O)c1c(C)nc(C)c(C(=O)OC)c1-c1ccccc1[N+](=O)[O-] [Dehydronifedipine, dehydronifedipine]
AUC ratio of the dehydronifedipine to nifedipine ([1]; rats treated with nifedipine suspension (in water)): 38% | half-life (terminal) ([1]; rats, nifedipine suspended in water (10 mg/ml), oral dose 10 mg/kg): 15.7 h | AUC0–t ratio of dehydronifedipine to nifedipine ([1]; rats, ref 6 (Han et al.)): 2.7 ± 0.3% | 14-day stability in plasma samples [2]: 99.6–100.8% | AUC0–t ratio of dehydronifedipine to nifedipine ([3]; control rats, oral nifedipine 3 mg/kg in 50% PEG 400): 2.7 ± 0.5% | AUC0–t [3, 7]: 0.11 ± 0.01 µg·h/mL | AUC0–∞ [3, 7]: 0.13 ± 0.02 µg·h/mL | CL/F (apparent clearance) [3, 7]: 405 ± 53.3 mL/min/kg | Cmax [3, 7]: 50 ± 10 ng/mL | Tmax [3, 7]: 0.29 ± 0.05 h | Vd/F [3, 7]: 61.0 ± 13.3 L/kg | t1/2 [3, 7]: 1.9 ± 0.5 h | AUC0–t [3, 8]: 0.13 ± 0.02 µg·h/mL | AUC0–∞ [3, 8]: 0.24 ± 0.04 µg·h/mL | CL/F (apparent clearance) [3, 8]: 253 ± 55 mL/min/kg | Cmax [3, 8]: 40 ± 0 ng/mL | Tmax [3, 8]: 0.58 ± 0.08 h | Vd/F [3, 8]: 89.7 ± 14.4 L/kg | t1/2 [3, 8]: 4.8 ± 0.8 h | AUC0–t [3, 9]: 0.46 ± 0.11 ^* h·μg/ml | AUC0–∞ [3, 9]: 1.77 ± 0.53 ^* h·μg/ml | CL/F (apparent clearance) [3, 9]: 43.3 ± 16.7 mL/min/kg | Cmax [3, 9]: 100 ± 20 ng/mL | Tmax [3, 9]: 1.80 ± 0.55 h | Vd/F [3, 9]: 34.3 ± 7.4 L/kg | t1/2 [3, 9]: 12.3 ± 3.9 h | AUC0–t [3, 10]: 0.12 ± 0.02 µg·h/mL | AUC0–∞ [3, 10]: 0.14 ± 0.02 µg·h/mL | CL/F (apparent clearance) [3, 10]: 395 ± 48.3 mL/min/kg | Cmax [3, 10]: 40 ± 10 ng/mL | Tmax [3, 10]: 0.70 ± 0.12 h | Vd/F [3, 10]: 68.9 ± 9.0 L/kg | t1/2 [3, 10]: 2.0 ± 0.1 h

COc1cc2c(c(OC)c1OC)-c1c(cc3c(c1OC)OCO3)CC(C)C(C)C2 (stereo not drawn) [schisandrin B]
Tmax [4]: about 4 h

CC[C@@H]([C@H](C)O)n1ncn(-c2ccc(N3CCN(c4ccc(OC[C@@H]5CO[C@@](Cn6cncn6)(c6ccc(F)cc6F)C5)cc4)CC3)cc2)c1=O [posaconazole]
mean Cmax at 200 mg 4 times daily relative to 400 mg twice daily [5]: 2 fold

COc1cc2c(c(OC)c1OC)-c1c(cc(OC)c(OC)c1OC)C[C@H](C)[C@H](C)C2 [schisandrin A]
decrease of NFO activity [6]: 48%
